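Grown in 96-well plates, cells were treated for 48 hours with each compound at five concentrations. Insufficient inhibition: endpoint recorded as highest concentration tested. The concentration for 50% growth inhibition is given as GI50. The concentration for full growth arrest is given as TGI.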
What was measured:
Experiment in all cases: DTP human tumour cell line panel, 48 h
IGROV1 ovarian = test system: IGROV1 ovarian
MCF7 breast = test system: MCF7 breast
SN12C renal = test system: SN12C renal
MOLT-4 leukemia = test system: MOLT-4 leukemia
UACC-62 melanoma = test system: UACC-62 melanoma
786-0 renal = test system: 786-0 renal
MDA-MB-231 breast = test system: MDA-MB-231 breast
SF-539 CNS = test system: SF-539 CNS
SW-620 colon = test system: SW-620 colon
EKVX NSCLC = test system: EKVX NSCLC

Compound: Cn1cc(C2=C(c3cn(CCO)c4ccccc34)C(=O)NC2=O)c2ccccc21
- GI50 (IGROV1 ovarian): 4.93 µM
- TGI (IGROV1 ovarian): 14.9 µM
- GI50 (MCF7 breast): 1.24 µM
- TGI (MCF7 breast): > 25 µM
- GI50 (SN12C renal): 4.75 µM
- TGI (SN12C renal): > 25 µM
- GI50 (MOLT-4 leukemia): 1.36 µM
- TGI (MOLT-4 leukemia): 16.8 µM
- GI50 (UACC-62 melanoma): 2.58 µM
- TGI (UACC-62 melanoma): 7.99 µM
- GI50 (786-0 renal): 5.01 µM
- TGI (786-0 renal): > 25 µM
- GI50 (MDA-MB-231 breast): 5.98 µM
- TGI (MDA-MB-231 breast): > 22.4 µM
- GI50 (SF-539 CNS): 1.4 µM
- TGI (SF-539 CNS): 8.9 µM
- GI50 (SW-620 colon): 1.21 µM
- TGI (SW-620 colon): > 25 µM

Compound: C/C=C/C1=C(Cl)C(=O)[C@@H](Cl)[C@@]1(O)C(=O)OC
- TGI (IGROV1 ovarian): 14.1 µM
- TGI (MCF7 breast): 3.89 µM
- TGI (SN12C renal): 7.15 µM
- TGI (MOLT-4 leukemia): 12.9 µM
- TGI (UACC-62 melanoma): 4.18 µM
- TGI (EKVX NSCLC): 9.27 µM
- TGI (786-0 renal): 18 µM
- TGI (SF-539 CNS): 5.45 µM
- TGI (SW-620 colon): 3.1 µM

Compound: CC[O-].CC[O-].O=C([CH-]C(=O)c1cccnc1)c1ccccc1.O=C([CH-]C(=O)c1cccnc1)c1ccccc1.[Ti+4]
- GI50 (IGROV1 ovarian): > 100 µM
- TGI (IGROV1 ovarian): > 100 µM
- GI50 (SN12C renal): > 100 µM
- TGI (SN12C renal): > 100 µM
- GI50 (MOLT-4 leukemia): 13.6 µM
- TGI (MOLT-4 leukemia): > 100 µM
- GI50 (UACC-62 melanoma): > 100 µM
- TGI (UACC-62 melanoma): > 100 µM
- GI50 (EKVX NSCLC): > 100 µM
- TGI (EKVX NSCLC): > 100 µM
- GI50 (786-0 renal): 61.1 µM
- TGI (786-0 renal): > 100 µM
- GI50 (SF-539 CNS): 43.1 µM
- TGI (SF-539 CNS): > 100 µM
- GI50 (SW-620 colon): 96.8 µM
- TGI (SW-620 colon): > 100 µM

Compound: O=c1cc(-c2ccccc2)oc2cc(O)c(O)c(O)c12
- GI50 (SN12C renal): 8.8 µM
- TGI (SN12C renal): 26 µM
- GI50 (MOLT-4 leukemia): 53.7 µM
- TGI (MOLT-4 leukemia): > 100 µM
- GI50 (UACC-62 melanoma): 9.39 µM
- TGI (UACC-62 melanoma): 31.9 µM
- GI50 (EKVX NSCLC): 18.9 µM
- TGI (EKVX NSCLC): 63.3 µM
- GI50 (786-0 renal): 9.87 µM
- TGI (786-0 renal): 27.3 µM
- GI50 (MDA-MB-231 breast): 14.1 µM
- TGI (MDA-MB-231 breast): 36.8 µM
- GI50 (SF-539 CNS): 8.4 µM
- TGI (SF-539 CNS): 36.8 µM
- GI50 (SW-620 colon): 17.8 µM
- TGI (SW-620 colon): > 100 µM

Compound: Clc1ccc(/C=C/c2cc(N3CCOCC3)c3cc(Cl)c(Cl)cc3n2)cc1
- GI50 (IGROV1 ovarian): > 100 µM
- TGI (IGROV1 ovarian): > 100 µM
- GI50 (MCF7 breast): > 100 µM
- TGI (MCF7 breast): > 100 µM
- GI50 (SN12C renal): 1.54 µM
- TGI (SN12C renal): > 100 µM
- GI50 (MOLT-4 leukemia): 0.428 µM
- GI50 (UACC-62 melanoma): > 100 µM
- TGI (UACC-62 melanoma): > 100 µM
- GI50 (786-0 renal): 1.37 µM
- TGI (786-0 renal): > 100 µM
- GI50 (MDA-MB-231 breast): 11.1 µM
- TGI (MDA-MB-231 breast): > 100 µM
- GI50 (SF-539 CNS): > 100 µM
- TGI (SF-539 CNS): > 100 µM
- GI50 (SW-620 colon): > 100 µM
- TGI (SW-620 colon): > 100 µM

Compound: [Cl][Sn]([Cl])([c]1ccccc1)[c]1ccccc1
- GI50 (IGROV1 ovarian): 19.3 µM
- TGI (IGROV1 ovarian): 38.3 µM
- GI50 (SN12C renal): 14.9 µM
- TGI (SN12C renal): 28.2 µM
- GI50 (MOLT-4 leukemia): 5.25 µM
- TGI (MOLT-4 leukemia): 36.9 µM
- GI50 (UACC-62 melanoma): 2.87 µM
- TGI (UACC-62 melanoma): 9.08 µM
- GI50 (EKVX NSCLC): 17.8 µM
- TGI (EKVX NSCLC): 32.1 µM
- GI50 (786-0 renal): 4.8 µM
- TGI (786-0 renal): 16.7 µM
- GI50 (SF-539 CNS): 16 µM
- TGI (SF-539 CNS): 29.4 µM
- GI50 (SW-620 colon): 3.02 µM
- TGI (SW-620 colon): 10.2 µM

Compound: Nc1nc2sc3ccccc3c(=O)n2n1
- TGI (IGROV1 ovarian): > 100 µM
- TGI (SN12C renal): > 100 µM
- TGI (MOLT-4 leukemia): > 100 µM
- TGI (UACC-62 melanoma): > 100 µM
- TGI (EKVX NSCLC): > 100 µM
- TGI (786-0 renal): > 100 µM
- TGI (SF-539 CNS): > 100 µM
- TGI (SW-620 colon): > 100 µM

Reference: PubChem BioAssay (NCI)
